Holding throughout (assay): MIC, NCCLS broth microdilution
What all share (assay type): cell-based

Assay [1] relates to Pseudomonas aeruginosa MK1184. As to conditions: for MIC of antibiotic: antibiotic alone, no inhibitor.
The next assay has as its system Serratia marcescens S6. The settings on record: for MIC of antibiotic: antibiotic alone, no inhibitor.
The subject of a further assay is Enterobacter cloacae P99. The settings on record: for MIC of antibiotic: antibiotic alone, no inhibitor.
Assay [2] deals with Klebsiella pneumoniae CF104. As to conditions: for MIC of antibiotic: antibiotic alone, no inhibitor.
Another assay deals with Acinetobacter sp. J2. As to conditions: Acinetobacter baumannii J2; for MIC of antibiotic: antibiotic alone, no inhibitor.
Assay [3] deals with Pseudomonas aeruginosa 1973E. The settings on record: for MIC of antibiotic: antibiotic alone, no inhibitor. In a few lines: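 NCCLS M7-A5 microdilution; DMSO ≤1% final; overnight, 30° C. or 37° C.; visual read. MIC = lowest conc. with no visible growth. Combos: formula I titrated, partners fixed at 4 μg/mL each.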
For assay [4], the system named is Stenotrophomonas malthophilia 1AC736. As to conditions: Stenotrophomonas maltophilia 1AC736; for MIC of antibiotic: antibiotic alone, no inhibitor.

On to `CC1(C)C(NC(=O)C(=NOCc2cc(=O)c(O)cn2O)c2nsc(N)n2)C(=O)N1OS(=O)(=O)O` (stereo not drawn) [Compound 32], for which the MIC of antibiotic in assay [1] was 4 µg/mL; with Serratia marcescens S6 it was 0.5 µg/mL; with Enterobacter cloacae P99, 32 µg/mL; in assay [2] it was greater than 32 µg/mL; with Acinetobacter sp. J2 it was greater than 32 µg/mL; in assay [3] it was 16 µg/mL. For the same compound, in assay [4], the MIC of antibiotic was 0.5 µg/mL. Moreover, the “MIC of antibiotic at fixed inhibitor concentration of 4 mg/L” value was found to be 4 µg/mL in assay [1] (with 102 and clavulanate); 4 µg/mL in assay [1] (with 324 and clavulanate); 0.25 µg/mL in the assay on Serratia marcescens S6 (with 102 and clavulanate); 0.25 µg/mL in the assay with Serratia marcescens S6 (with 324 and clavulanate); 8 µg/mL in the assay on Enterobacter cloacae P99 (with 102 and clavulanate); 4 µg/mL in the assay with Enterobacter cloacae P99 (with 324 and clavulanate). The “MIC of antibiotic at fixed inhibitor concentration of 4 mg/L” value in assay [2] (with 102 and clavulanate) is 1 µg/mL; in assay [2] (with 324 and clavulanate), 2 µg/mL; with Acinetobacter sp. J2 (with 102 and clavulanate) it was 4 µg/mL; in the assay on Acinetobacter sp. J2 (with 324 and clavulanate), 8 µg/mL; in assay [3] (with 102 and clavulanate), 8 µg/mL; in assay [3] (with 324 and clavulanate) it was 8 µg/mL. The “MIC of antibiotic at fixed inhibitor concentration of 4 mg/L” value in assay [4] (with 102 and clavulanate) is 0.5 µg/mL; in assay [4] (with 324 and clavulanate) it was 0.5 µg/mL.
Take `CC1(C)C(NC(=O)C(=NOCc2cc(=O)c(O)cn2O)c2csc(N)n2)C(=O)N1OCC(=O)O` (stereo not drawn) [Compound 33]: the MIC of antibiotic in assay [1] is 32 µg/mL; in the assay on Serratia marcescens S6, 0.5 µg/mL; with Enterobacter cloacae P99, 32 µg/mL; in assay [2] it was 2 µg/mL; with Acinetobacter sp. J2, greater than 32 µg/mL; in assay [3], 32 µg/mL. Also, the MIC of antibiotic in assay [4] came to 2 µg/mL. The “MIC of antibiotic at fixed inhibitor concentration of 4 mg/L” value in assay [1] (with 102 and clavulanate) was 16 µg/mL; in assay [1] (with 324 and clavulanate), 32 µg/mL; in the assay on Serratia marcescens S6 (with 102 and clavulanate), 0.25 µg/mL; in the assay with Serratia marcescens S6 (with 324 and clavulanate) it was 0.25 µg/mL; with Enterobacter cloacae P99 (with 102 and clavulanate), 4 µg/mL; in the assay on Enterobacter cloacae P99 (with 324 and clavulanate), 16 µg/mL. In addition, the “MIC of antibiotic at fixed inhibitor concentration of 4 mg/L” value in assay [2] (with 102 and clavulanate) is 0.5 µg/mL; in assay [2] (with 324 and clavulanate), 0.5 µg/mL; in the assay on Acinetobacter sp. J2 (with 102 and clavulanate), 16 µg/mL; in the assay with Acinetobacter sp. J2 (with 324 and clavulanate), 8 µg/mL; in assay [3] (with 102 and clavulanate), 16 µg/mL; in assay [3] (with 324 and clavulanate), 16 µg/mL. Moreover, the “MIC of antibiotic at fixed inhibitor concentration of 4 mg/L” value in assay [4] (with 102 and clavulanate) was 2 µg/mL; in assay [4] (with 324 and clavulanate), 2 µg/mL.

Values taken from patent US20160122320A1, “USEFUL COMBINATIONS OF MONOBACTAM ANTIBIOTICS WITH BETA-LACTAMASE INHIBITORS” (Basilea Pharmaceutica AG, priority 2005, published 2016).
